Test results from paper PMC7336998, “Discovery of secondary sulphonamides as IDO1 inhibitors with potent antitumour effects in vivo” (Journal of Enzyme Inhibition and Medicinal Chemistry, 2020).

Assays:
IDO1 = molecular target: T1, IDO1 (Homo sapiens, UniProt P14902); test: HeLa cell-based IDO1/kynurenine assay; conditions: for inhibition at 30 µM: percentage inhibition at 30 μM, IFN-γ-treated HeLa cells, kynurenine in media; for IC50: HeLa cells, IFN-γ induced IDO1, kynurenine readout
T1 construct: a human cervical cancer cell line HeLa that endogenously expresses IDO1 upon IFN-γ treatment; endogenous in cells; host or cells: HeLa cells treated with human IFN-γ
Description: (§1) The main bioassays performed in the study, including HeLa cell-based IDO1/kynurenine assay, Western blot analysis, T cell proliferation and Treg cell differentiation experiments, were carried out as described previously.
It is well known that IDO1 is broadly expressed in human cancers and is induced by pro-inflammatory cytokines, such as interferon gamma (IFN-γ) and tumour necrosis factor alpha (TNF-α)[41]. Here we utilised a human cervical cancer cell line HeLa that endogenously expresses IDO1 upon IFN-γ treatment to evaluate the IDO1 inhibitory activity of the synthesised compounds by measuring kynurenine secreted into the media. […] Thus, we also employed this cellular assay to detect false positive IDO1 inhibitors and cytotoxic compounds by measuring HeLa cell viability. Clinical candidate navoximod was used as an assay control.

IDO1 protein expression = test: Western blot of IDO1 protein expression in IFN-γ-treated HeLa cells; type: cell-based, human; conditions: HeLa cells, IFN-γ 100 ng/mL 24 h, then compounds at their IC50 concentrations for 24 h
Description: as §1
To exclude the possibility that these secondary sulphonamides inhibit IDO1 activity by down-regulating IDO1 expression, we utilised Western blot to measure the expression of IDO1 protein in HeLa cells treated with different compounds.
Figure 3. […] (B) The greyscale scanning statistical results of A. (C) HeLa cells were incubated with compound 5d (3, 10, 30 μM) for 24 h. (D) The greyscale scanning statistical results of C. (E) HeLa cells were incubated with compound 5d (3, 10, 30 μM) for 48 h. (F) The greyscale scanning statistical results of E. Data are presented as means ± SEM (n = 3).

T1 sequence (P14902 whole entry): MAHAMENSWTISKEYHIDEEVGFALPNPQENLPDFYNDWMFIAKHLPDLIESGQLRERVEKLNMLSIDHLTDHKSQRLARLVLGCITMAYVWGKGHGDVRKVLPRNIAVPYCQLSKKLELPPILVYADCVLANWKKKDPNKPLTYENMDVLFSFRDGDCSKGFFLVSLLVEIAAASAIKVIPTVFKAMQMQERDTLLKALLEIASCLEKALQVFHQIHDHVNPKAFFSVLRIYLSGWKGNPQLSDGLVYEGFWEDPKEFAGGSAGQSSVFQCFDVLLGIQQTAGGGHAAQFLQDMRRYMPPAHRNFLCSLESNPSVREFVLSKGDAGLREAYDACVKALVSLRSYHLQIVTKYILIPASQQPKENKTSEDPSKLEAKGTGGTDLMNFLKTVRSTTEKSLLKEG

CC(=O)Nc1ccc(S(=O)(=O)Nc2ccccc2)cc1 [3a, N-(4-(N-Phenylsulfamoyl)phenyl)acetamide]
melting point: 204 to 206 °C | inhibition at 30 µM (IDO1): 3.9%

CC(=O)Nc1ccc(S(=O)(=O)Nc2ccc(C)cc2)cc1 [3b, N-(4-(N-(p-Tolyl)sulfamoyl)phenyl)acetamide]
inhibition at 30 µM (IDO1): 16.3%

CC(=O)Nc1ccc(S(=O)(=O)Nc2ccc(C(C)C)cc2)cc1 [3c, N-(4-(N-(4-Isopropylphenyl)sulfamoyl)phenyl)acetamide]
melting point: 186 to 188 °C | inhibition at 30 µM (IDO1): 5.9%

CC(=O)Nc1ccc(S(=O)(=O)Nc2cccc(C(C)C)c2)cc1 [3d, N-(4-(N-(3-Isopropylphenyl)sulfamoyl)phenyl)acetamide]
melting point: 158 to 160 °C | inhibition at 30 µM (IDO1): 14.6%

CC(=O)Nc1ccc(S(=O)(=O)NCc2ccccc2)cc1 [3e, N-(4-(N-Benzylsulfamoyl)phenyl)acetamide]
inhibition at 30 µM (IDO1): 2.5%

CC(=O)Nc1ccc(S(=O)(=O)NCc2ccc(Cl)cc2)cc1 [3f, N-(4-(N-(4-Chlorobenzyl)sulfamoyl)phenyl)acetamide]
melting point: 172 to 174 °C | inhibition at 30 µM (IDO1): 13.5%

CC(=O)Nc1ccc(S(=O)(=O)NCc2ccc(C(F)(F)F)cc2)cc1 [3g, N-(4-(N-(4-(Trifluoromethyl)benzyl)sulfamoyl)phenyl)acetamide]
melting point: 186 to 188 °C | inhibition at 30 µM (IDO1): 14.5%

CC(=O)Nc1ccc(S(=O)(=O)NCc2cccc(C(F)(F)F)c2)cc1 [3h, N-(4-(N-(3-(Trifluoromethyl)benzyl)sulfamoyl)phenyl)acetamide]
melting point: 154 to 156 °C | inhibition at 30 µM (IDO1): 7.8%

CC(=O)Nc1ccc(S(=O)(=O)NCCc2ccccc2)cc1 [3i, N-(4-(N-Phenethylsulfamoyl)phenyl)acetamide]
melting point: 130 to 132 °C | inhibition at 30 µM (IDO1): 5.9%

Nc1ccc(S(=O)(=O)Nc2ccccc2)cc1 [4a, 4-Amino-N-phenylbenzenesulfonamide]
inhibition at 30 µM (IDO1): 12%

Cc1ccc(NS(=O)(=O)c2ccc(N)cc2)cc1 [4b, 4-Amino-N-(p-tolyl)benzenesulfonamide]
inhibition at 30 µM (IDO1): 10.8%

Nc1ccc(S(=O)(=O)NCc2ccccc2)cc1 [4c, 4-Amino-N-benzylbenzenesulfonamide]
inhibition at 30 µM (IDO1): 7.4%

Nc1ccc(S(=O)(=O)NCc2ccc(Cl)cc2)cc1 [4d, 4-Amino-N-(4-chlorobenzyl)benzenesulfonamide]
melting point: 172 to 174 °C | inhibition at 30 µM (IDO1): -4.2%

Nc1ccc(S(=O)(=O)NCc2cccc(Cl)c2)cc1 [4e, 4-Amino-N-(3-chlorobenzyl)benzenesulfonamide]
melting point: 119 to 121 °C | IC50 (IDO1): > 50 µM | inhibition at 30 µM (IDO1): 2.3%

Nc1ccc(S(=O)(=O)NCCc2ccccc2)cc1 [4f, 4-Amino-N-phenethylbenzenesulfonamide]
inhibition at 30 µM (IDO1): 3.1%

C=CC(=O)Nc1ccc(S(=O)(=O)NCc2ccccc2)cc1 [5a, N-(4-(N-Benzylsulfamoyl)phenyl)acrylamide]
melting point: 116 to 118 °C | IC50 (IDO1): 22.4 µM | inhibition at 30 µM (IDO1): 62.5%

C=CC(=O)Nc1ccc(S(=O)(=O)NCc2ccc(OC)cc2)cc1 [5b, N-(4-(N-(4-Methoxybenzyl)sulfamoyl)phenyl)acrylamide]
melting point: 156 to 158 °C | IC50 (IDO1): 40.1 µM | inhibition at 30 µM (IDO1): 36%

C=CC(=O)Nc1ccc(S(=O)(=O)NCc2ccc(Cl)cc2)cc1 [5c, N-(4-(N-(4-Chlorobenzyl)sulfamoyl)phenyl)acrylamide]
melting point: 190 to 192 °C | IC50 (IDO1): 36.2 µM | inhibition at 30 µM (IDO1): 40.4%

C=CC(=O)Nc1ccc(S(=O)(=O)NCCc2ccccc2)cc1 [5e, N-(4-(N-Phenethylsulfamoyl)phenyl)acrylamide]
melting point: 154 to 156 °C | IC50 (IDO1): 26.3 µM | inhibition at 30 µM (IDO1): 55.2%

C=CC(=O)Nc1ccc(S(=O)(=O)NCc2ccc(C(F)(F)F)cc2)cc1 [5f, N-(4-(N-(4-(Trifluoromethyl)benzyl)sulfamoyl)phenyl)acrylamide]
melting point: 198 to 200 °C | IC50 (IDO1): 39.2 µM | inhibition at 30 µM (IDO1): 38.2%

C=CC(=O)Nc1ccc(S(=O)(=O)NCc2cccc(C(F)(F)F)c2)cc1 [5g, N-(4-(N-(3-(Trifluoromethyl)benzyl)sulfamoyl)phenyl)acrylamide]
melting point: 152 to 154 °C | IC50 (IDO1): 30.5 µM | inhibition at 30 µM (IDO1): 49.5%

C=CC(=O)Nc1ccc(S(=O)(=O)NCc2ccc(F)cc2)cc1 [5h, N-(4-(N-(4-Fluorobenzyl)sulfamoyl)phenyl)acrylamide]
melting point: 178 to 180 °C | IC50 (IDO1): 20.5 µM | inhibition at 30 µM (IDO1): 70.9%

C=CC(=O)Nc1ccc(S(=O)(=O)NCc2cccc(F)c2)cc1 [5i, N-(4-(N-(3-Fluorobenzyl)sulfamoyl)phenyl)acrylamide]
melting point: 152 to 154 °C | IC50 (IDO1): 39.5 µM | inhibition at 30 µM (IDO1): 37.8%

C=CC(=O)Nc1ccc(S(=O)(=O)NCc2ccccc2Cl)cc1 [5j, N-(4-(N-(2-Chlorobenzyl)sulfamoyl)phenyl)acrylamide]
melting point: 178 to 180 °C | IC50 (IDO1): 22.7 µM | inhibition at 30 µM (IDO1): 65.1%

C=CC(=O)Nc1ccc(S(=O)(=O)NCc2ccc(Br)cc2)cc1 [5k, N-(4-(N-(4-Bromobenzyl)sulfamoyl)phenyl)acrylamide]
melting point: 194 to 196 °C | IC50 (IDO1): 42.1 µM | inhibition at 30 µM (IDO1): 37.5%

C=CC(=O)Nc1ccc(S(=O)(=O)NCc2ccc(Cl)c(Cl)c2)cc1 [5m, N-(4-(N-(3,4-Dichlorobenzyl)sulfamoyl)phenyl)acrylamide]
melting point: 148 to 150 °C | IC50 (IDO1): 37.3 µM | inhibition at 30 µM (IDO1): 44%

C=CC(=O)Nc1ccc(S(=O)(=O)Nc2ccccc2)cc1 [8a, N-(4-(N-Phenylsulfamoyl)phenyl)acrylamide]
melting point: 212 to 213 °C | IC50 (IDO1): 13.2 µM | inhibition at 30 µM (IDO1): 85.9%

C=CC(=O)Nc1ccc(S(=O)(=O)Nc2ccc(C)cc2)cc1 [8b, N-(4-(N-(p-Tolyl)sulfamoyl)phenyl)acrylamide]
melting point: 230 to 232 °C | inhibition at 30 µM (IDO1): 25.3%

C=CC(=O)Nc1ccc(S(=O)(=O)Nc2ccc(OC)cc2)cc1 [8c, N-(4-(N-(4-Methoxyphenyl)sulfamoyl)phenyl)acrylamide]
melting point: 234 to 235 °C | inhibition at 30 µM (IDO1): 20.9%

C=CC(=O)Nc1ccc(S(=O)(=O)Nc2cccc(OC)c2)cc1 [8d, N-(4-(N-(3-Methoxyphenyl)sulfamoyl)phenyl)acrylamide]
melting point: 197 to 199 °C | IC50 (IDO1): 13.4 µM | inhibition at 30 µM (IDO1): 74.8%

C=CC(=O)Nc1ccc(S(=O)(=O)Nc2cccc(F)c2)cc1 [8e, N-(4-(N-(3-Fluorophenyl)sulfamoyl)phenyl)acrylamide]
melting point: 212 to 215 °C | IC50 (IDO1): 17.7 µM | inhibition at 30 µM (IDO1): 69.7%

C=CC(=O)Nc1ccc(S(=O)(=O)Nc2cccc(Cl)c2)cc1 [8f, N-(4-(N-(3-Chlorophenyl)sulfamoyl)phenyl)acrylamide]
melting point: 217 to 219 °C | IC50 (IDO1): 9.48 µM | inhibition at 30 µM (IDO1): 89.5% | expression of IDO1 protein (IDO1 protein expression): did not influence IDO1 expression

C=CC(=O)Nc1ccc(S(=O)(=O)Nc2ncccn2)cc1 [8h, N-(4-(N-(Pyrimidin-2-yl)sulfamoyl)phenyl)acrylamide]
melting point: 229 to 230 °C | inhibition at 30 µM (IDO1): 16.4%

C=CC(=O)Nc1ccc(S(=O)(=O)Nc2onc(C)c2C)cc1 [8i, N-(4-(N-(3,4-Dimethylisoxazol-5-yl)sulfamoyl)phenyl)acrylamide]
melting point: 206 to 208 °C | inhibition at 30 µM (IDO1): 23.6%

C=CC(=O)Nc1ccc(S(=O)(=O)Nc2cc(C)on2)cc1 [8j, N-(4-(N-(5-Methylisoxazol-3-yl)sulfamoyl)phenyl)acrylamide]
melting point: 232 to 233 °C | inhibition at 30 µM (IDO1): 22.7%
